Assay results reported in patent publication US11591311B2, “3-oxo-6-heteroaryl-2-phenyl-2,3-dihydropyridazine-4-carboxamides” (priority 2017, dated 2023).

biological target: T1, AHR (Homo sapiens, UniProt P35869); assay: In vitro assay 1: AHR-luc transactivation assay, antagonism in human cell line (U87 glioblastoma cells prestimulated with kynurenic acid); format: cell-based
T1 construct: U87 glioblastoma cells (ATCC) endogenously expressing AHR; host or cells: U87 glioblastoma cells, stably transfected with DRE-firefly luciferase and renilla reporter constructs
T1 sequence (P35869 11-848): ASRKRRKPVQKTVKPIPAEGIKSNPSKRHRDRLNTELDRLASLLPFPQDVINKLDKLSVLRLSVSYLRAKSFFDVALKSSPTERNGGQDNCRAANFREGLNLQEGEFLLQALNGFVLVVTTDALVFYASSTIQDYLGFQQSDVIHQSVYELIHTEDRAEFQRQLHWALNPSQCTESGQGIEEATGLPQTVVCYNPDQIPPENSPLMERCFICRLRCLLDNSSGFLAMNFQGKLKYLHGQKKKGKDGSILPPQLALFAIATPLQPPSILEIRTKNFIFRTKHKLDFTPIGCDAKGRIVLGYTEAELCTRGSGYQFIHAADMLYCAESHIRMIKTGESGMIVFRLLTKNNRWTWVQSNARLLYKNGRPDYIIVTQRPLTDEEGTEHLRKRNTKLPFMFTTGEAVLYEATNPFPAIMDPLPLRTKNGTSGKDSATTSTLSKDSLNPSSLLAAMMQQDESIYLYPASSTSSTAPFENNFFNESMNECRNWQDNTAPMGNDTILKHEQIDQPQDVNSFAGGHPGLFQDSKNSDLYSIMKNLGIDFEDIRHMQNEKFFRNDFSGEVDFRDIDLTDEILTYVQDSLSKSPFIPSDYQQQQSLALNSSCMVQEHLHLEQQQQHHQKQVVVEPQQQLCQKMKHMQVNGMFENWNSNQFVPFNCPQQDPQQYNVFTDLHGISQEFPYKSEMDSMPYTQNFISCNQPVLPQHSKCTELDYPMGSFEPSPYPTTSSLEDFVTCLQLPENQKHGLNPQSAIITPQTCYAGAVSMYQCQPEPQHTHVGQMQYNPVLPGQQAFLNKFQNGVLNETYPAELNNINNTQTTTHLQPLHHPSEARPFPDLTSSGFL
Protocol: Transactivation Assay in Human Cell Line (In Vitro Assays 1 and 2)
Transactivation assays were carried out in U87 glioblastoma cells (ATCC) endogenously expressing AHR. In addition the cells were stably transfected with an AHR inducible firefly luciferase reporter gene construct that carried AHR-binding sites (DRE) in its promoter and a renilla reporter gene construct with constitutively active promoter. Kynurenic acid is an endogenous AHR activating ligand and was used to prestimulate test cells prior to testing the antagonistic properties of compounds.
In Vitro Assay 1: Antagonism in Human Cell Line
Cells in medium (tryptophan free RPMI, 1% FCS, 2 mM Glutamine) supplemented with 150 μM kynurenic acid were grown for 20 hours in absence (negative control) or presence of increasing concentrations of test compounds (typical dilutions: 72 pmol/L, 0.25 nmol/L, 0.89 nmol/L; 3.1 nmol/L, 11 nmol/L, 38 nmol/L, 130 nmol/L, 470 nmol/L, 1.6 μmol/L, 5.7 μmol/L and 20 μmol/L in duplicates). As positive inhibition control cells supplemented with 150 μM kynurenic acid were incubated in presence of 5 μM Staurosporin. Normalization was done by positive and negative controls.
Firefly luciferase and Renilla activity was determined by the DualGlo Luciferase Assay System (Promega, #2920). Renilla activity was used to assess toxic effects of compounds.

Row | Compound | IC50 [nM]
1 | CC(C)(O)CNC(=O)c1cc(-c2cnc(C(F)(F)F)nc2)nn(-c2cccc(F)c2)c1=O [Example 17, 2-(3-Fluorophenyl)-N-(2-hydroxy-2-methylpropyl)-3-oxo-6-[2-(trifluoromethyl)pyrimidin-5-yl]-2,3-dihydropyridazine-4-carboxamide] | 2030
2 | CC(C)(O)[C@@H](NC(=O)c1cc(-c2ccc(C(F)F)nc2)nn(-c2cccc(F)c2)c1=O)C1CC1 [Example 27, N-[(1S)-1-Cyclopropyl-2-hydroxy-2-methylpropyl]-6-[6-(difluoromethyl)pyridin-3-yl]-2-(3-fluorophenyl)-3-oxo-2,3-dihydropyridazine-4-carboxamide] | 4.08
3 | C[C@@H](CO)NC(=O)c1cc(-c2ccc(C(F)(F)F)cn2)nn(-c2ccc(F)c(F)c2)c1=O [Example 43, 2-(3,4-Difluorophenyl)-N-[(2S)-1-hydroxypropan-2-yl]-3-oxo-6-[5-(trifluoromethyl)pyridin-2-yl]-2,3-dihydropyridazine-4-carboxamide] | 902
4 | C[C@H](NC(=O)c1cc(-c2cnc(C(F)(F)F)nc2)nn(-c2cccc(F)c2)c1=O)C(C)(C)O [Example 14, 2-(3-Fluorophenyl)-N-[(2S)-3-hydroxy-3-methylbutan-2-yl]-3-oxo-6-[2-(trifluoromethyl)pyrimidin-5-yl]-2,3-dihydropyridazine-4-carboxamide] | 217
5 | C[C@H](O)[C@H](C)NC(=O)c1cc(-c2cnc(C(F)(F)F)nc2)nn(-c2cccc(F)c2)c1=O [Example 16, 2-(3-Fluorophenyl)-N-[(2S,3S)-3-hydroxybutan-2-yl]-3-oxo-6-[2-(trifluoromethyl)pyrimidin-5-yl]-2,3-dihydropyridazine-4-carboxamide] | 169
6 | C[C@@H](CO)NC(=O)c1cc(-c2ccc(Cl)cn2)nn(-c2cccc(F)c2)c1=O [Example 24, 6-(5-Chloropyridin-2-yl)-2-(3-fluorophenyl)-N-[(2S)-1-hydroxypropan-2-yl]-3-oxo-2,3-dihydropyridazine-4-carboxamide] | 352
7 | O=C(NC[C@H](O)C(F)F)c1cc(-c2cnc(C(F)(F)F)nc2)nn(-c2cccc(F)c2)c1=O [Example 15, N-[(2S)-3,3-Difluoro-2-hydroxypropyl]-2-(3-fluorophenyl)-3-oxo-6-[2-(trifluoromethyl)pyrimidin-5-yl]-2,3-dihydropyridazine-4-carboxamide] | 307
8 | O=C(N[C@H]1COCC[C@H]1O)c1cc(-c2ccc(C(F)F)nc2)nn(-c2cccc(F)c2)c1=O [Example 35, 1,5-Anhydro-2,4-dideoxy-2-[({6-[6-(difluoromethyl)pyridin-3-yl]-2-(3-fluorophenyl)-3-oxo-2,3-dihydropyridazin-4-yl}carbonyl)amino]-D-erythro-pentitol] | 174
9 | O=C(N[C@H](CO)C1CC1)c1cc(-c2ccc(C(F)F)nc2)nn(-c2cccc(F)c2)c1=O [Example 29, N-[(1S)-1-Cyclopropyl-2-hydroxyethyl]-6-[6-(difluoromethyl)pyridin-3-yl]-2-(3-fluorophenyl)-3-oxo-2,3-dihydropyridazine-4-carboxamide] | 15.1
10 | O=C(N[C@@H]1CSC[C@@H]1O)c1cc(-c2ccc(C(F)(F)F)nc2)nn(-c2cccc(F)c2)c1=O [Example 26, 2-(3-Fluorophenyl)-N-[(3S,4R)-4-hydroxytetrahydrothiophen-3-yl]-3-oxo-6-[6-(trifluoromethyl)pyridin-3-yl]-2,3-dihydropyridazine-4-carboxamide] | 5740
11 | C[C@@H](CO)NC(=O)c1cc(-c2ccc(C(F)(F)F)cn2)nn(-c2cccc(F)c2)c1=O [Example 25, 2-(3-Fluorophenyl)-N-[(2S)-1-hydroxypropan-2-yl]-3-oxo-6-[5-(trifluoromethyl)pyridin-2-yl]-2,3-dihydropyridazine-4-carboxamide] | 84.8
12 | O=C(N[C@H]1COC[C@@H]1O)c1cc(-c2ccc(C(F)F)nc2)nn(-c2cccc(F)c2)c1=O [Example 38, 6-[6-(Difluoromethyl)pyridin-3-yl]-2-(3-fluorophenyl)-N-[(3S,4R)-4-hydroxytetrahydrofuran-3-yl]-3-oxo-2,3-dihydropyridazine-4-carboxamide] | 370
13 | O=C(N[C@H]1CCC[C@H]1O)c1cc(-c2ccc(C(F)F)nc2)nn(-c2cccc(F)c2)c1=O [Example 30, 6-[6-(Difluoromethyl)pyridin-3-yl]-2-(3-fluorophenyl)-N-[(1S,2R)-2-hydroxycyclopentyl]-3-oxo-2,3-dihydropyridazine-4-carboxamide] | 21.8
14 | O=C(N[C@H]1COCC[C@H]1O)c1cc(-c2ccc(C(F)(F)F)nc2)nn(-c2cccc(F)c2)c1=O [Example 40, 1,5-anhydro-2,4-dideoxy-2-[({2-(3-fluorophenyl)-3-oxo-6-[6-(trifluoromethyl)pyridin-3-yl]-2,3-dihydropyridazin-4-yl}carbonyl)amino]-D-erythro-pentitol] | 32.8
15 | N#C[C@@H](CO)NC(=O)c1cc(-c2ccc(C(F)F)nc2)nn(-c2cccc(F)c2)c1=O [Example 32, N-[(1S)-1-Cyano-2-hydroxyethyl]-6-[6-(difluoromethyl)pyridin-3-yl]-2-(3-fluorophenyl)-3-oxo-2,3-dihydropyridazine-4-carboxamide] | 55.9
16 | N#C[C@@H](CO)NC(=O)c1cc(-c2ccc(C(F)(F)F)nc2)nn(-c2cccc(F)c2)c1=O [Example 39, N-[(1S)-1-Cyano-2-hydroxyethyl]-2-(3-fluorophenyl)-3-oxo-6-[6-(trifluoromethyl)pyridin-3-yl]-2,3-dihydropyridazine-4-carboxamide] | 22.8
17 | CC(C)(O)CNC(=O)c1cc(-c2ccc(C(F)F)nc2)nn(-c2cccc(F)c2)c1=O [Example 34, 6-[6-(Difluoromethyl)pyridin-3-yl]-2-(3-fluorophenyl)-N-(2-hydroxy-2-methylpropyl)-3-oxo-2,3-dihydropyridazine-4-carboxamide] | 156
18 | Cc1ccc(-c2cc(C(=O)N[C@@H](C)CO)c(=O)n(-c3cccc(F)c3)n2)cn1 [Example 23, 2-(3-Fluorophenyl)-N-[(2S)-1-hydroxypropan-2-yl]-6-(6-methylpyridin-3-yl)-3-oxo-2,3-dihydropyridazine-4-carboxamide] | 265
19 | O=C(N[C@H]1COCC[C@@H]1O)c1cc(-c2ccc(C(F)F)nc2)nn(-c2cccc(F)c2)c1=O [Example 37, 1,5-Anhydro-2,4-dideoxy-2-[({6-[6-(difluoromethyl)pyridin-3-yl]-2-(3-fluorophenyl)-3-oxo-2,3-dihydropyridazin-4-yl}carbonyl)amino]-L-threo-pentitol] | 268
20 | COc1ccc(-c2cc(C(=O)N[C@H](C)C(C)(C)O)c(=O)n(-c3cccc(F)c3)n2)cn1 [Example 20, 2-(3-Fluorophenyl)-N-[(2R)-3-hydroxy-3-methylbutan-2-yl]-6-(6-methoxypyridin-3-yl)-3-oxo-2,3-dihydropyridazine-4-carboxamide] | 509
21 | O=C(NCC1(O)CCCCC1)c1cc(-c2ccc(C(F)F)nc2)nn(-c2cccc(F)c2)c1=O [Example 31, 6-[6-(Difluoromethyl)pyridin-3-yl]-2-(3-fluorophenyl)-N-[(1-hydroxycyclohexyl)methyl]-3-oxo-2,3-dihydropyridazine-4-carboxamide] | 31.8
22 | O=C(N[C@H]1COC[C@H]1O)c1cc(-c2ccc(C(F)F)nc2)nn(-c2cccc(F)c2)c1=O [Example 33, 6-[6-(Difluoromethyl)pyridin-3-yl]-2-(3-fluorophenyl)-N-[(3S,4S)-4-hydroxyoxolan-3-yl]-3-oxo-2,3-dihydropyridazine-4-carboxamide] | 75.1
23 | C[C@@H](CO)NC(=O)c1cc(-c2ccc(C(F)(F)F)nc2)nn(-c2ccc(F)c(F)c2)c1=O [Example 3, 2-(3,4-Difluorophenyl)-N-[(2S)-1-hydroxypropan-2-yl]-3-oxo-6-[6-(trifluoromethyl)pyridin-3-yl]-2,3-dihydropyridazine-4-carboxamide] | 623
